Test results published in patent US20250195521A1 (Revolution Medicines, Inc., priority 2020, published 2025).
Where “and” joins values, the source holds several entries; their conditions need not be identical. Equal entries are not always repeated. Where two headings read alike, the source gives them in different places.

Columns and labels:
KRAS G12C = KRAS G12C (Homo sapiens (Human), UniProt P01116+P62937, G12C); assay: Ras-Raf disruption/FRET/MOA assay (BRAF RBD, Cyclophilin A); format: biochemical; details: read-out: KRAS G12C FRET IC50
Chain of KRAS G12C (P01116-2 other isoform, or with tags, fused parts or gaps G12C): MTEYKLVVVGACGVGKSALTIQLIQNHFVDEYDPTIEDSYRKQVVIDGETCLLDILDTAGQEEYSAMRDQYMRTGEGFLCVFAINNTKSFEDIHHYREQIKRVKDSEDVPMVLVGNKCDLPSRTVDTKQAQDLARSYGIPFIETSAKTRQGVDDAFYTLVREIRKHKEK
Chain of KRAS G12C (P62937 whole entry): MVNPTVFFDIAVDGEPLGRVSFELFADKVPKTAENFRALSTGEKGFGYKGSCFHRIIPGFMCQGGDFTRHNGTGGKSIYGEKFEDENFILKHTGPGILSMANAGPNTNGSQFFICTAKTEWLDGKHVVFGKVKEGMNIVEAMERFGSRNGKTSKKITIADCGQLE
Outline: (§1)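 Measured: compound-facilitated Cyclophilin A:Ras complex blocking RAF RBD binding. Conditions: 12.5 nM Ras-GMPPNP, 50 nM BRAF RBD, 25 μM CypA, 3 h plus 1.5 h detection. Output: IC50 from TR-FRET ratio.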

KRAS WT = KRAS WT (Homo sapiens (Human), UniProt P01116+P62937); assay: as above; format: biochemical; details: read-out: KRAS WT FRET data IC50
Chain of KRAS WT (P01116 other isoform, or with tags, fused parts or gaps): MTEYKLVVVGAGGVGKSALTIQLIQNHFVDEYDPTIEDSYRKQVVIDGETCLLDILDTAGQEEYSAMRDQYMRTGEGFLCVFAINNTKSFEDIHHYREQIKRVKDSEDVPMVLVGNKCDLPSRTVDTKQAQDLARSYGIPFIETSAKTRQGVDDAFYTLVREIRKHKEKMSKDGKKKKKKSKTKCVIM
Chain of KRAS WT (P62937 whole entry): as the sequence (P62937 whole entry) above
Outline: as §1

NRAS G12C = NRAS G12C (Homo sapiens (Human), UniProt P01111+P62937, G12C); assay: as above; format: biochemical; details: read-out: NRAS G12C FRET data IC50
Chain of NRAS G12C (P01111 whole entry G12C): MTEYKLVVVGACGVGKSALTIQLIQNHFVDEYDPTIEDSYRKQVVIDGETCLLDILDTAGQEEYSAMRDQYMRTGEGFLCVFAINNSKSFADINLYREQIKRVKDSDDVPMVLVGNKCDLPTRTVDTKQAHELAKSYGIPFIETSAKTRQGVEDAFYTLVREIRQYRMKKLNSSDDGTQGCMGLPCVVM
Chain of NRAS G12C (P62937 whole entry): as the sequence (P62937 whole entry) above
Outline: as §1

KRAS G12D = KRAS G12D (Homo sapiens (Human), UniProt P01116+P62937, G12D); assay: as above; format: biochemical; details: read-out: KRAS G12D FRET IC50
Chain of KRAS G12D (P01116 other isoform, or with tags, fused parts or gaps G12D): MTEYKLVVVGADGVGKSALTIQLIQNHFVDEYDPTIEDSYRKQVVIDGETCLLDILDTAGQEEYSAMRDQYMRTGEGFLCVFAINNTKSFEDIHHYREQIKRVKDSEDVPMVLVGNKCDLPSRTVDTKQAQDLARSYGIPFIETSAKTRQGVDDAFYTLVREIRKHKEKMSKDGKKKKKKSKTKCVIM
Chain of KRAS G12D (P62937 whole entry): as the sequence (P62937 whole entry) above
Outline: as §1

KRAS G13D = KRAS G13D (Homo sapiens (Human), UniProt P01116+P62937, G13D); assay: as above; format: biochemical; details: read-out: KRAS G13D FRET data IC50
Chain of KRAS G13D (P01116 other isoform, or with tags, fused parts or gaps G13D): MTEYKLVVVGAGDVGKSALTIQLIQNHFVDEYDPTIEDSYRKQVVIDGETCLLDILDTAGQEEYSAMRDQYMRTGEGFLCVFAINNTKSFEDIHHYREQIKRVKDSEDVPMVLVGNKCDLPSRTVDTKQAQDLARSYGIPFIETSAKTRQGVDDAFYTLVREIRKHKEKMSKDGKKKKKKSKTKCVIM
Chain of KRAS G13D (P62937 whole entry): as the sequence (P62937 whole entry) above
Outline: as §1

KRAS G12S = KRAS G12S (Homo sapiens (Human), UniProt P01116+P62937, G12S); assay: as above; format: biochemical; details: read-out: KRAS G12S FRET IC50
Chain of KRAS G12S (P01116 other isoform, or with tags, fused parts or gaps G12S): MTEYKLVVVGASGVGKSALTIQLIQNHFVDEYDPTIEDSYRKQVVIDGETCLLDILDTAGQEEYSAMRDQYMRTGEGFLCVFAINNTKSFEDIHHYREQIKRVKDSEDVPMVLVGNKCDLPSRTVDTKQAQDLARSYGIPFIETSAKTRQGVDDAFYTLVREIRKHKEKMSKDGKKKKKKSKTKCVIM
Chain of KRAS G12S (P62937 whole entry): as the sequence (P62937 whole entry) above
Outline: as §1

KRAS G12V = KRAS G12V (Homo sapiens (Human), UniProt P01116+P62937, G12V); assay: as above; format: biochemical; details: read-out: KRAS G12V FRET IC50
Chain of KRAS G12V (P01116 other isoform, or with tags, fused parts or gaps G12V): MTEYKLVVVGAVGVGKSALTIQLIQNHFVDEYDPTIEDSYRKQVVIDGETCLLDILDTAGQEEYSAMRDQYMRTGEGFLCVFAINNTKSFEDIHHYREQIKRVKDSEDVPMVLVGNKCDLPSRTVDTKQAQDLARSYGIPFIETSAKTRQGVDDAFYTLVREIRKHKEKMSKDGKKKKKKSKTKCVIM
Chain of KRAS G12V (P62937 whole entry): as the sequence (P62937 whole entry) above
Outline: as §1

KRAS G13C = KRAS G13C (Homo sapiens (Human), UniProt P01116+P62937, G13C); assay: as above; format: biochemical; details: read-out: KRAS G13C FRET IC50
Chain of KRAS G13C (P01116 other isoform, or with tags, fused parts or gaps G13C): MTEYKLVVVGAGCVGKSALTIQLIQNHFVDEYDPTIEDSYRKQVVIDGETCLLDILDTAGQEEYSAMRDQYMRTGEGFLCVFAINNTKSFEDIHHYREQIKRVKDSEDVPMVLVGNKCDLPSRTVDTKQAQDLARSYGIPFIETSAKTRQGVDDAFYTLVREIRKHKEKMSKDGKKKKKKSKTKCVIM
Chain of KRAS G13C (P62937 whole entry): as the sequence (P62937 whole entry) above
Outline: as §1

[1] = molecular target: K-Ras G12C(GMP-PNP) binding to BRAF RBD (Homo sapiens (Human), UniProt P01116+P62937, G12C); assay: Disruption of BRAF RBD interaction with K-Ras (FRET / MOA assay), K-Ras G12C; format: biochemical; details: read-out: KRAS G12C FRET IC50
Chain of K-Ras G12C(GMP-PNP) binding to BRAF RBD (P01116 other isoform, or with tags, fused parts or gaps G12C): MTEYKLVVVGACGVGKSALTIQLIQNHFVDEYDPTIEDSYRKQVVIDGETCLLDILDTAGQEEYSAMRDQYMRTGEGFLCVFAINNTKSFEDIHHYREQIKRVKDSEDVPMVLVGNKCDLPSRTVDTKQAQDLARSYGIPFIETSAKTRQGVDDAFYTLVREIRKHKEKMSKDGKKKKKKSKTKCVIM
Chain of K-Ras G12C(GMP-PNP) binding to BRAF RBD (P62937 whole entry, canonical isoform): as the sequence (P62937 whole entry) above
Outline: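 Incubation of compound (up to 30 μM final, 3-fold steps) with GMP-PNP-type loaded Ras isoform, cyclophilin A and BRAF RBD ran 3 h at 25° C, followed by 1.5 h with detection antibodies. Disruption appears as a reduced TR-FRET ratio compared with DMSO controls, expressed as IC50.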

[2] = tested on: NCI-H358 cells (K-Ras G12C); assay: CellTiter-Glo cell viability, NCI-H358; format: cell-based, human; details: Homo sapiens, NCI-H358, 120 h, K-Ras G12C, 5-day treatment; read-out: H358 Cell Viability IC50
Outline: (§2)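 Viability is read as luminescence after five days of compound exposure, with plates first equilibrated to room temperature for roughly 30 minutes. Each signal is expressed as a percentage of the mean DMSO control, and curves are fitted by four-parameter logistic regression.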

NCI-H358 (K-Ras G12C) = assay: CellTiter-Glo cell viability assay, NCI-H358; format: cell-based, human; details: Homo sapiens, NCI-H358, 120 h
Outline: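 Viability is measured as ATP-dependent luminescence (CellTiter-Glo) five days into compound treatment. Responses are normalized to vehicle (DMSO) wells and fitted by four-parameter logistic regression.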

[3] = tested on: Capan-1 cells (K-Ras G12V); assay: CellTiter-Glo cell viability, Capan-1; format: cell-based, human; details: Homo sapiens, CAPAN-1, 120 h, K-Ras G12V, 5-day treatment; read-out: Capan-1 Cell Viability IC50
Outline: as §2

[4] = tested on: K-Ras G12C (NCI-H358 cells); assay: Potency assay: pERK in NCI-H358 cells; format: cell-based, human; details: Homo sapiens; NCI-H358 cells, 4 hours; read-out: pERK EC50 (H358 KRAS G12C)
Outline: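 Cells plated the day before were exposed for 4 h at 37° C, 5% CO2 to a 10-point, 3-fold DMSO dilution series (10 mM top stock), in duplicate. Phospho-ERK was read by AlphaLISA SureFire Ultra or by In-Cell Western with DRAQ5 DNA stain, and IC50 came from a 4-parameter sigmoidal fit.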

[5] = 5-day treatment, read-out: H358 Cell Viability assay data (K-Ras G12C, IC50)

Row | IC50 (KRAS G12C) [µM] | IC50 (KRAS WT) [µM] | IC50 (NRAS G12C) [µM] | IC50 (KRAS G12D) [µM] | IC50 (KRAS G13D) [µM] | IC50 (KRAS G12S) [µM] | IC50 (KRAS G12V) [µM] | IC50 (KRAS G13C) [µM] | IC50 [1] | IC50 [2] [µM] | IC50 (NCI-H358 (K-Ras G12C); [5]) [µM] | EC50 [4] [µM] | IC50 (NCI-H358 (K-Ras G12C); read-out: H358 Cell Viability assay data (K-Ras G12C, IC50, uM), 5-day treatment) [µM] | Compound | IC50 [3] [µM]
1 | 0.01 to 0.1 | 0.01 to 0.1 | 0.01 to 0.1 | 0.01 to 0.1 | 0.01 to 0.1 | 0.1 to 1 | 0.1 to 1 | 0.01 to 0.1 | > 10 µM | 0.1 to 1 | > 10 | – | – | CCn1c(-c2cccnc2[C@H](C)OC)c2c3cc(ccc31)-c1cc(O)cc(c1)C[C@H](NC(=O)[C@H](C(C)C)N(C)C(=O)[C@H]1CN[C@@H]3CCO[C@H]13)C(=O)N1CCC[C@H](N1)C(=O)OCC(C)(C)C2 [Compound A231] | 1 to 10
2 | – | – | – | – | – | – | – | – | 0.01 to 0.1 µM and 1 to 10 µM | 0.1 to 1 | – | < 5 | – | CCn1c(-c2cccnc2[C@H](C)OC)c2c3cc(ccc31)-c1csc(n1)C[C@H](NC(=O)[C@H](C(C)C)N(C)C(=O)N1C[C@H](C)N(C)C[C@@H]1C)C(=O)N1CCC[C@H](N1)C(=O)OCC(C)(C)C2 [Compound A283] | 0.1 to 1
3 | 0.1 to 1 | 0.1 to 1 | 0.1 to 1 | 0.1 to 1 | 0.1 to 1 | 0.1 to 1 | 0.1 to 1 | 0.1 to 1 | 0.1 to 1 µM | 0.1 to 1 | 0.1 to 1 | – | – | CCn1c(-c2cccnc2[C@H](C)OC)c2c3cc(ccc31)-c1csc(n1)C[C@H](NC(=O)[C@H](C(C)C)N(C)C(=O)N1C[C@@H]3C[C@H]1CN3C)C(=O)N1CCC[C@H](N1)C(=O)OCC(C)(C)C2 [Compound A314] | 0.1 to 1
4 | 0.01 to 0.1 | 0.1 to 1 | 0.01 to 0.1 | 0.1 to 1 | 0.1 to 1 | 0.1 to 1 | 0.1 to 1 | 0.01 to 0.1 | 0.1 to 1 µM | 0.01 to 0.1 | 0.1 to 1 | – | – | CCn1c(-c2cccnc2[C@H](C)OC)c2c3cc(ccc31)-c1cc(O)cc(c1)C[C@H](NC(=O)[C@H](C(C)C)N(C)C(=O)N1CC(OC)C1)C(=O)N1CCC[C@H](N1)C(=O)OCC(C)(C)C2 [Compound A364] | 0.01 to 0.1
5 | 0.1 to 1 | 1 to 10 | 0.1 to 1 | 1 to 10 | 1 to 10 | 0.1 to 1 | 0.1 to 1 | 0.1 to 1 | 0.1 to 1 µM | – | 0.01 to 0.1 | – | – | CCn1c(-c2cccnc2[C@H](C)OC)c2c3cc(ccc31)-c1cc(O)cc(c1)C[C@H](NC(=O)[C@H](C(C)C)N(C)C(=O)[C@H]1CCN(C(C)=O)C1)C(=O)N1CCC[C@H](N1)C(=O)NCC(C)(C)C2 [Compound A431] | –
6 | – | – | – | – | – | – | – | – | 0.1 to 1 µM | 0.01 to 0.1 | – | – | 0.1 to 1 | CCn1c(-c2cccnc2[C@H](C)OC)c2c3cc(ccc31)-c1csc(n1)C[C@H](NC(=O)[C@H](C(C)C)N(C)C(=O)N1CCC[C@@H](N(C)C)CC1)C(=O)N1CCC[C@H](N1)C(=O)OCC(C)(C)C2 [Compound A494] | –
7 | – | – | – | – | – | – | – | – | 0.1 to 1 µM | < 0.01 | 0.1 to 1 | < 5 | – | CCn1c(-c2cc(N3CCN(C)CC3)cnc2[C@H](C)OC)c2c3cc(ccc31)-c1csc(n1)C[C@H](NC(=O)[C@H](C(C)C)N(C)C(=O)[C@@H]1OCC[C@@H]1c1ccccc1)C(=O)N1CCC[C@H](N1)C(=O)OCC(C)(C)C2 [Compound A593] | < 0.01
